# Data from patent US12685755B2, “Methods and compositions for treating mucosal tissue disorders” (The University of North Carolina at Chapel Hill, priority 2012, dated 2026).
# Columns and labels:
# [1] = tested on: Pseudomonas aeruginosa strain PAO1; experiment: nitrate dependent growth of PAO1 under anaerobic atmosphere; format: cell-based; details: for nitrate dependent growth: LB broth with nitrate, anaerobic atmosphere; for inhibition of growth: anaerobic
# Protocol: FIG. 1. […] Pseudomonas aeruginosa strain PAO1 is capable of growing in the absence of oxygen using nitrate for respiration. […] The studies presented in FIG. 1 examine whether glutathione influences the growth of PAO1 either in the presence or absence of nitrate under either ambient (aerobic) or anaerobic atmospheres. […]
# FIG. 4. […] To examine this possibility, S-nitrosoglutathione (Sigma) was tested for influence on growth of PAO1 in TSBN (1% KNO3) with and without 6.4 mM glutathione.
# (§1) FIG. 7. […] The next series of experiments was designed to determine if there were any influences of ascorbate on glutathione potentiation of the growth inhibition of the RNI (FIGS. 7, 8 and 9).
# CB2 receptor = CB2 receptor (Homo sapiens, UniProt P34972); details: cited from earlier work
# [2] = tested on: Pseudomonas aeruginosa strain PAO1; experiment: aerobic growth of PAO1 in broth in ambient atmosphere; format: cell-based; details: for effects on aerobic growth attained by 17 h, single components: each alone: KNO2 to 3.5 mM, glutathione to 5 mM, ascorbate to 2.1 mM
# Text: FIG. 1. […] Pseudomonas aeruginosa strain PAO1 is capable of growing in the absence of oxygen using nitrate for respiration. […] The studies presented in FIG. 1 examine whether glutathione influences the growth of PAO1 either in the presence or absence of nitrate under either ambient (aerobic) or anaerobic atmospheres.
# (§2) FIG. 2. […] To test this possibility, reduced glutathione was titrated vs. increasing concentrations of KNO2 in either trypticase soy broth (TSB) in ambient atmosphere or in trypticase soy broth with nitrate (TSBN) (1% KNO3) under anaerobic atmosphere.
# (§3) FIG. 3. […] These studies examined the question of the importance of the redox state of glutathione to its contributions to the inhibition by RNI and to the blocking of the glucose oxidase antimicrobial effects. Glutathione in either its reduced (GSH) or oxidized (GSSG) form was titrated in the presence or absence of 14 mM nitrite in TSB and PAO1 was grown in ambient atmosphere.
# FIG. 6. […] If NO reacts with glutathione to generate nitrosoglutathione then gassing with NO in the presence of glutathione may be expected to yield greater activity than gassing first and then adding glutathione. To test this effect, LB broth was either pre-gassed with NO followed by titration of GSH or the LB broth aliquots containing various concentrations of GSH were gassed. Titration of NO was accomplished by varying the gassing times of the LB broth.
# as §1
# FIG. 8. […] Ascorbate was titrated over a checkerboard titration of glutathione and KNO2 in LB broth.
# FIG. 9. […] In these experiments, varying concentrations of NO were achieved again by varying the gassing time (10, 15, 30 or 45 min) with 2.3% NO in N2 either in the presence (NO-GSH) or absence (NO-LB) of varying concentrations of glutathione. Glutathione was added to NO-LB in varying concentrations (NO-LB+GSH).
# [3] = tested on: P. aeruginosa clinical isolate (C3873M)
# Protocol: (§4) FIGS. 10A-B. Influences of bicarbonate on alginate production by different strains of P. aeruginosa under a 5% CO2 atmosphere. Alginate production of selected strains of P. aeruginosa surface grown in a CO2 incubator was quantitatively determined by a colorimetric assay. […] These three strains were then tested for their ability to make alginate under an atmosphere of 5% CO2 with increasing concentrations of NaHCO3(FIG. 10B).
# PAO1 = details: 5% CO2; increasing concentrations of NaHCO3
# Protocol: as §4
# [4] = tested on: Pa Mucoid laboratory derived from PAO1; details: 5% CO2; increasing concentrations of NaHCO3
# Protocol: as §4
# [5] = tested on: Pseudomonas aeruginosa strain PAO1; experiment: glucose oxidase / H2O2 mediated growth inhibition of PAO1; format: cell-based
# Text: as §2, §3
# [6] = absence of NO, glutathione and ascorbate concentrations and combinations of the study
# CB2 receptor, sequence (P34972 whole entry): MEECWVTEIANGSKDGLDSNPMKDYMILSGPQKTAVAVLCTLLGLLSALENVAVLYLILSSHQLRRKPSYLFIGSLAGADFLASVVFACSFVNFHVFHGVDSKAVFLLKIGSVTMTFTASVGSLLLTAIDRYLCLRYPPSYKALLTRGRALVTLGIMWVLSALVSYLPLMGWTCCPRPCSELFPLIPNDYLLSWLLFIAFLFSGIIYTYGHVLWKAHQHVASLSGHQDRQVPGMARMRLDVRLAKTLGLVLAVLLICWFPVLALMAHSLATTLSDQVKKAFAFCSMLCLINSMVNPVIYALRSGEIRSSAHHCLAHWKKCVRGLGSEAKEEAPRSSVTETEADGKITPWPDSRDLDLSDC
structure (smiles),measurement,setting,value
"N[C@@H](CCC(=O)N[C@@H](CSN=O)C(=O)NCC(=O)O)C(=O)O [GSNO, S-nitrosoglutathione, reference compound]","inhibition of growth, bacterial density (A=650 nm) at 18 h","[1]; GSNO titrated, TSBN (1% KNO3), without glutathione",concentration dependent inhibition
"C=C1CC[C@@H]2[C@@H](C1)c1c(OC)cc(C(C)(C)CCCCCC)cc1OC2(C)C [L-759,656]",CB1/CB2 binding ratio,CB2 receptor,> 1000
"[N]=O [NO, nitric oxide, reference compound]",inhibition of aerobic growth by NO,"[2]; LB broth gassed with NO, absence of glutathione",no discernible inhibition
"O=C1O[C@H]([C@@H](O)CO)C(O)=C1O [ascorbate, ascorbic acid]",inhibition of growth in ambient atmosphere,"[2]; 0.2 mM ascorbate with 7.5 mM glutathione, presence of nitrate",profound inhibition of growth
same,inhibition of aerobic growth,"[2]; 2.1 mM ascorbate with 7.5 mM glutathione, absence of nitrate",total inhibition
same,inhibitory effects on aerobic growth,[2]; [6],no inhibitory effects
same,effect on inhibition by KNO2 with glutathione,"[2]; ascorbate added to KNO2 and glutathione, LB broth",enhanced
same,effect on aerobic growth attained by 17 h,"[2]; ascorbate added to either glutathione or KNO2, LB broth",no discernible effect
same,enhancement of inhibition of aerobic growth,"[2]; ascorbate titrated, 15 min delivery of NO, 2.5 mM GSH",concentration dependent ascorbate enhancement of inhibition
same,"effects on aerobic growth attained by 17 h, single components",[2]; LB broth,"neither KNO2 to 3.5 mM, glutathione to 5 mM nor ascorbate to 2.1 mM had discernible effects"
same,effect on glutathione reduction of aerobic growth,"[2]; increasing concentrations of ascorbic acid added to glutathione, LB broth",further enhanced
same,decrease in nitrate-dependent growth,[1]; increasing ascorbate in the presence of 2.5 mM glutathione,more pronounced
same,nitrate-dependent growth,"[1]; increasing concentrations of ascorbate, absence of glutathione",dose dependent decrease in nitrate-dependent growth
"O=C(O)O [bicarbonate, NaHCO3]",alginate production,"[3]; 5% CO2, increasing concentrations of NaHCO3",inhibited
same,alginate production associated with the mucoidy phenotype of P. aeruginosa,[3]; preliminary studies,inhibits the alginate production
same,alginate production,PAO1,failed to make alginate
same,alginate production,[4],significantly enhanced
"N[C@@H](CCC(=O)N[C@@H](CS)C(=O)NCC(=O)O)C(=O)O [glutathione, N—(N-L-γ-glutamyl-L-cysteinyl)glycine]","inhibition of aerobic growth, glutathione with NO","[2]; 2.5 mM glutathione, NO titrated by gassing time, LB broth",dose dependent NO inhibition of growth
same,inhibition of aerobic growth,"[2]; 5 mM glutathione and ascorbate, presence versus absence of nitrate",greater inhibition of aerobic growth
same,"inhibition of aerobic growth, glutathione with NO","[2]; 5 mM glutathione, lowest concentration of NO (10 minutes gassing time), LB broth",total inhibition
same,"inhibition of aerobic growth, glutathione with NO","[2]; 5 mM glutathione, lowest concentration of NO, regardless of order of addition",total inhibition of growth
same,"inhibition of growth, glutathione with nitrite","[2]; 6.4 mM GSH and 14 mM KNO2, TSB, ambient atmosphere",significant inhibition
same,growth yield at 14 h,"[2]; 7.5 mM glutathione, LB broth with or without 1% nitrate, aerobic",reduced growth yield
same,"inhibition of growth, glutathione with nitrite","[2]; 12.8 mM GSH and 7 mM KNO2, TSB, ambient atmosphere",significant inhibition
same,inhibition of PAO1 growth in the presence of nitrite,"[2]; 14 mM nitrite, TSB, ambient atmosphere, molar equivalency",inhibition of PAO1 growth
same,enhancement of NO gas inhibition of aerobic growth,"[2]; 0.5 relative concentration of NO, TSB",dose dependent enhancement of inhibition
same,inhibitory effects on aerobic growth,[2]; [6],no inhibitory effects
same,"effects on aerobic growth attained by 17 h, single components",[2]; LB broth,"neither KNO2 to 3.5 mM, glutathione to 5 mM nor ascorbate to 2.1 mM had discernible effects"
same,aerobic growth attained,"[2]; glutathione titrated, LB broth",dose dependent reduction in the aerobic growth
same,lowest glutathione concentration at which synergistic inhibition was evident,"[2]; in the presence of 1.75 mM KNO2, ascorbate titrated, LB broth",2.5 mM
same,enhancement of NO gas inhibition of aerobic growth,"[2]; lower NO concentrations, TSB",not at lower NO concentrations
same,aerobic growth of P. aeruginosa,[2]; nitrite and nitric oxide in the presence of GSH,inhibit the aerobic growth of P. aeruginosa
same,growth yield,"[2]; reduced glutathione titrated, TSB, absence of nitrite","slight, but significant, concentration-dependent increase in growth yield"
same,growth inhibition of PAO1 by exogenous H2O2,[5]; 14 mM GSH,blocked
same,protection from inhibition with the glucose oxidase system,"[5]; TSB, ambient atmosphere",protected PAO1 from inhibition
same,protection from the growth inhibiting effects of glucose oxidase,[5]; increasing concentration of GSH,protected PAO1
same,growth in an anaerobic atmosphere with nitrate,"[1]; 2.5 mM and lower concentrations of glutathione, absence of ascorbate",permitted growth
same,nitrate dependent growth,[1]; 2.5 mM glutathione or less,no discernible effects
same,nitrate dependent growth,[1]; 5 mM glutathione,total inhibition
same,"effect on GSNO inhibition of growth, bacterial density (A=650 nm) at 18 h","[1]; 6.4 mM glutathione with GSNO, TSBN (1% KNO3)",significantly enhanced
same,nitrate dependent growth,[1]; 7.5 mM glutathione,total inhibition
same,inhibition of growth,"[1]; increasing GSH with nitrite concentrations not totally inhibitory by themselves, TSBN",further inhibition
same,"use of nitrate, nitrite or nitric oxide for growth under anaerobic conditions","[1]; preliminary data, P. aeruginosa","limit the ability of P. aeruginosa to utilize nitrate, nitrite, or nitric oxide to grow under anaerobic conditions"
same,anti-pseudomonal activities of GSNO and other nitric oxide donors,[1]; presence of exogenous glutathione,potentiated
"O=N[O-].[K+] [nitrite, KNO2, reference compound]",inhibitory effects on aerobic growth,"[2]; KNO2 in the presence of glutathione, LB broth",concentration dependent inhibitory effects
same,"effects on aerobic growth attained by 17 h, single components",[2]; LB broth,"neither KNO2 to 3.5 mM, glutathione to 5 mM nor ascorbate to 2.1 mM had discernible effects"
same,lowest KNO2 concentration at which synergistic inhibition was evident,"[2]; in the presence of 5 mM glutathione, ascorbate titrated, LB broth",0.875 mM
same,inhibition of aerobic growth,"[2]; nitrite to 14 mM, absence of glutathione, TSB",no discernible inhibition
same,inhibition of growth,"[1]; KNO2 added, TSBN (1% KNO3), absence of glutathione",significant inhibition
